From paper PMC7582705, “Structure-Based Discovery of Novel Chemical Classes of Autotaxin Inhibitors” (International Journal of Molecular Sciences, 2020)
pIC50: −log10 of the molar value. Like-named read-outs stand apart in the source and are kept apart here.

What was measured:
mouse ATX = biological target: T1, mouse ATX (Mus musculus, UniProt Q9R1E6); experiment: Amplex Red Lyso-phospholipase D assay, mouse ATX; format: biochemical
T1 construct: purchased Sino Biological
Protocol: (§1) All compounds proposed were assessed for their ATX inhibitory activity in vitro using the Amplex Red assay. The Amplex Red Lyso-phospholipase D assay is a fluorometry-based assay providing a sensitive method for measuring Lyso-phospholipase D (ATX) activity in vitro. In this enzyme-coupled assay, ATX activity is monitored indirectly using 10-acetyl-3,7-dihydrophenoxazine (Amplex Red reagent), a sensitive fluorogenic probe for H2O2. ATX initially cleaves the Lysophosphatidylcholine (LPC) substrate to yield choline and Lysophosphatidic acid (LPA), while choline gets subsequently oxidized by choline oxidase to betaine and H2O2. Lastly, H2O2, in the presence of horseradish peroxidase (HRP), reacts with Amplex Red reagent in a 1:1 stoichiometry to generate the highly fluorescent product resorufin.
(§2) The inhibition assay was performed as previously described with some modifications in order to accommodate the newly-discovered lag phase in ATX kinetics. To this end, and in order to provide adequate time to the hydrolysis of LPC by ATX, we added a 30min incubation period between ATX, inhibitors and LPC. Briefly, 2 μL of different concentrations of inhibitors diluted in DMSO (Sigma-Aldrich, St. Louis, MO, USA) were incubated with 50 µL of ATX 8 nM (human or mouse ATX from Sino Biological), and 48 µL reaction buffer (50 mM Tris-Cl pH 8.0 from Thermo Fisher Scientific, Waltham, MA, USA and 5 mM CaCl2 from Honeywell-Fluka, Charlotte, NC, USA) in a black 96-well microplate for 15 min at 37 °C. Thence, another 50 µL of reaction buffer with 200 μM LPC substrate 16:0 (Avanti Polar Lipids Inc, Alabaster, AL, USA) (final concentrations of LPC and ATX are 50 µM and 2 nM, respectively) was added to the reaction mixture and incubated for 30 min at 37 °C in order for ATX to convert LPC to LPA and choline. Finally, 50 µL of working solution containing 200 μM Amplex Red (Invitrogen, Carlsbad, CA, USA), 4 U/mL HRP (Sigma-Aldrich, St. Louis, MO, USA), 0.4 U/mL choline oxidase (Sigma-Aldrich, St. Louis, MO, USA) in 50 mM Tris-HCl pH 8.0 and 5 mM CaCl2 was added to measure the produced choline. The reaction was monitored at 37 °C in a fluorescence plate reader using excitation at 530 nm and reading at 590 nm, every 5 min for 30 min. The velocity of the reaction and the remaining activity of ATX were calculated at the linear phase of the reaction and dose-response inhibition graphs were plotted with GraphPad Software (GraphPad Software, San Diego, CA, USA). […] In order to evaluate a possible effect of the compounds on the second (choline oxidase) and third (HRP) enzymes of the Amplex Red assay, we also performed the assay in the absence of ATX but in the presence of the compounds. Instead of ATX, we added choline chloride at a final concentration of 2 µM so as the second and third steps of the assay could proceed normally.

ATX [1] = biological target: T2, ATX (Homo sapiens, UniProt Q13822); experiment: Amplex Red Lyso-phospholipase D assay, human ATX; format: biochemical; design: purchased Sino Biological; details: for inhibition at 30 µM: Table S2, at 30uM, read-out: %inhibition at 30uM
Protocol: as §1
as §2, with “([…])” for “(final concentrations of LPC and ATX are 50 µM and 2 nM, respectively)”

Solubility (Table S1) = details: YES/NO
ATX [2] = biological target: T2, ATX; experiment: IC50 Eleanna (Table S2, method not described); format: biochemical; details: Table S2; read-out: IC50 Eleanna
phosphodiesterase (PDE) = experiment: Phosphodiesterase (PDE) colorimetric assay, 3',5'-cAMP and 3',5'-cGMP as substrates; format: biochemical
Description: This colorimetric assay kit uses 3′,5′-cAMP and 3′,5′-cGMP as substrates, and it is useful for the screening of inhibitors of nucleotide phosphodiesterase activity.

[3] = in vitro IC50 (mATX 2nM), Table S2, mATX 2nM
[4] = in vitro IC50 (hATX 1nM), Table S2, hATX 1nM
[5] = recombinant mouse ATX 2 nM, LPC 16:0 substrate, Amplex Red, read-out: IC50 mATX
[6] = recombinant human ATX 2 nM, LPC 16:0 substrate, Amplex Red, read-out: IC50 hATX

Row | Solubility (Solubility (Table S1)) | pIC50 (ATX [1]; [6]) | SMILES | also measured
1 |  |  | CCOC(=O)c1c(CN2CCCC2)n(-c2ccccc2)c2cc(Br)c(OC)cc12 [KM-3, ethyl 6-bromo-5-methoxy-1-phenyl-2-(pyrrolidin-1-ylmethyl)indole-3-carboxylate] | pIC50 (mouse ATX; [3]): 4.24; inhibition at 30 µM (ATX [1]): 17%; pIC50 (ATX [1]; [4]): 4.27
2 | YES | 4.10 | O=C1Nc2ccccc2/C1=C/c1cc2ccccc2n1S(=O)(=O)c1ccccc1 [SCR01013, (3Z)-3-[[1-(Benzenesulfonyl)indol-2-yl]methylidene]-1H-indol-2-one] | pIC50 (mouse ATX; [5]): 4.17; pIC50 (ATX [2]): 6.22; inhibition at 30 µM (ATX [1]): 13.2%; pIC50 (ATX [1]; [4]): 4.37
3 | YES | < 4.00 | O=C(NC(=O)c1ccc(-c2ccc(Cl)cc2)s1)Nc1cc(C(F)(F)F)cc(C(F)(F)F)c1 [MBE00201, N-[[3,5-bis(trifluoromethyl)phenyl]carbamoyl]-5-(4-chlorophenyl)thiophene-2-carboxamide] | 
4 | YES | < 4.00 | NC(=NOC(=O)c1ccc(-c2cccs2)s1)c1cccc(C(F)(F)F)c1 [SEW02612, N'-{[5-(2-thienyl)-2-thienylcarbonyl]oxy}-3-(trifluoromethyl)benzenecarboximidamide] | 
5 |  |  | COc1ccccc1NC(=S)N1CCn2cccc2C1c1ccc(OC)c(OC)c1 (stereo not drawn) [KM-41, 1-(3,4-dimethoxyphenyl)-N-(2-methoxyphenyl)-3,4-dihydro-1H-pyrrolo[1,2-a]pyrazine-2-carbothioamide] | pIC50 (mouse ATX; [3]): 4.22; pIC50 (ATX [2]): 6.52; inhibition at 30 µM (ATX [1]): 33.5%; pIC50 (ATX [1]; [4]): 4.42
6 |  | 5.74 | Cc1cccc(C)c1NC(=O)CSc1nc2ccccc2c(=O)n1CCc1cccs1 [KM-28, N-(2,6-dimethylphenyl)-2-[4-oxo-3-(2-thiophen-2-ylethyl)quinazolin-2-yl]sulfanylacetamide] | pIC50 (mouse ATX; [5]): 5.52; pIC50 (phosphodiesterase (PDE)): 6.05; activity against PDE (phosphodiesterase (PDE); in words): outstanding activity; pIC50 (ATX [2]): 5.70; inhibition at 30 µM (ATX [1]): 84.2%; pIC50 (ATX [1]; in vitro IC50 (Sino hATX 2nM), Table S2, Sino hATX 2nM): 5.73
7 | YES | < 4.00 | O=c1[nH]nc(-c2ccc(F)cc2)cc1Cc1cn(Cc2ccccc2)c2ccc([N+](=O)[O-])cc12 [HTS01403, 4-[(1-benzyl-5-nitro-1H-indol-3-yl)methyl]-6-(4-fluorophenyl)pyridazin-3(2H)-one] | 
8 | YES | < 4.00 | Cc1cc(OC(=O)c2c(-c3ccccc3)noc2C)c2cc(F)ccc2n1 [BTB01297, (6-fluoro-2-methylquinolin-4-yl) 5-methyl-3-phenyl-1,2-oxazole-4-carboxylate] | 
9 | YES | < 4.00 | Cc1ccc(C2=CC(c3cn(-c4ccccc4)nc3-c3ccccc3)N3C(=O)CSC3=N2)cc1 (stereo not drawn) [HTS09893, 5-(1,3-diphenylpyrazol-4-yl)-7-(4-methylphenyl)-5H-[1,3]thiazolo[3,2-a]pyrimidin-3-one] | 
10 | YES | < 4.00 | Cc1ccc(S(=O)(=O)CCSc2n[nH]c(=O)n2-c2ccc(OCc3ccccc3)cc2)cc1 [HTS02873, 4-[4-(benzyloxy)phenyl]-5-({2-[(4-methylphenyl)sulfonyl]ethyl}sulfanyl)-2,4-dihydro-3H-1,2,4-triazol-3-one] | 
11 | YES | < 4.00 | C(=C1c2ccccc2-c2ccccc21)C(C=C1c2ccccc2-c2ccccc21)c1ccccc1 [BTB11132, 9-[3-(9H-fluoren-9-yliden)-2-phenylpropylidene]-9H-fluorene] | 
12 | YES | < 4.00 | O=C(c1ccc(Sc2ccccc2)c([N+](=O)[O-])c1)N(Cc1ccc2c(c1)OCO2)c1ccc(F)cc1 [DSHS00944, N-(1,,3-benzodioxol-5-ylmethyl)-N-(4-fluorophenyl)-3-nitro-4-,phenylsulfanylbenzamide] | 
13 | YES | < 4.00 | CC(=O)Oc1ccccc1C(=CC=C(c1ccccc1)c1ccccc1)N1CCOCC1 [RF01254, 2-(1-morpholino-4,4-diphenylbuta-1,3-dienyl)phenyl acetate] | 
14 | YES | < 4.00 | O=S(=O)(Nc1cc(C(F)(F)F)ccc1N1CCc2ccccc2C1)c1cccc2nonc12 [HTS01790, N-[2-(3,4-dihydro-1H-isoquinolin-2-yl)-5-(trifluoromethyl)phenyl]-2,1,,3-benzoxadiazole-7-sulfonamide] | 
15 | YES | < 4.00 | COc1ccc(C2C(C(=O)O)c3ccccc3C(=O)N2Cc2ccc(F)cc2)cc1 (stereo not drawn) [PD00668, 2-(4-fluorobenzyl)-3-(4-methoxyphenyl)-1-oxo-1,2,3,4-tetrahydroisoquinoline-4-carboxylic acid] | 
16 | YES | < 4.00 | O=S(=O)(Nc1cc(-c2cccs2)nn1-c1ccc(F)cc1)c1ccc(-c2cc(C(F)(F)F)on2)s1 [SP00998] | 
17 | YES | < 4.00 | Nc1ncnc2c1ncn2CCc1ccccc1 [HTS11215, 9-phenethyl-9H-purin-6-amine] | 
18 | YES | < 4.00 | NC(=NOC(=O)c1cncc(C#Cc2ccccc2)c1)c1cccc(C(F)(F)F)c1 [KM08386, O1-{[5-(2-phenyleth-1-ynyl)-3-pyridyl]carbonyl}-3-(trifluoromethyl)benzene-1-carbohydroximamide] | 
19 | YES | < 4.00 | O=C(C(=Cc1ccccc1)n1ccnc1)c1ccccc1OCc1ccccc1 [NRB02626, 1-[2-(benzyloxy)phenyl]-2-(1H-imidazol-1-yl)-3-phenylprop-2-en-1-0ne] | 
20 | YES | < 4.00 | CC(C)(C)c1ccc(-c2nnc(SCC(=O)c3ccccc3)n2-c2ccc3c(c2)OCO3)cc1 [HTS02043, 2-[[4-(1,3-benzodioxol-5-yl)-5-(4-tert-butylphenyl)-1,2,4-triazol-3-yl]sulfanyl]-1-phenylethanone] | 

Row | SMILES | Solubility (Solubility (Table S1)) | pIC50 (ATX [1]; [6]) | also measured
21 | O=C1C2=C([CH]C=C[CH]2)C(=O)N1CN(Cc1csc2ccccc12)CN1C(=O)c2ccccc2C1=O [PD00399] | YES |  | pIC50 (ATX [1]; IC50 hATX, recombinant human ATX 2 nM, LPC 16:0 substrate, Amplex Red): < 4.00
